Experimental data taken from article PMC8521618 (ACS Medicinal Chemistry Letters, 2021).

Test: Pharmacokinetics in mice
Settings: for Vd: Vss, PK parameters (mouse)
[1] = CD1, mouse, in vivo, iv, 1 mg/kg, Table 3

estimated Fa (mouse, 50 mpk)	Structure (SMILES)	Vd [1]	half-life (CD1, mouse, in vivo, iv, 1 mg/kg, terminal t1/2, PK parameters (mouse), Table 3)	fraction absorbed (mouse, 10 mpk, 0.5% CMC/0.1% Tween80)	estimated Fa (mouse, 30 mpk)
<0.01 (50 mpk)	CC(=O)N(C)C1CCN(c2cc(F)cc(NC(=O)c3cc4c(F)ccc(C)c4[nH]3)c2)C1 (stereo not drawn) [Compound 25, 4-fluoro-N-[3-fluoro-5-[3-(N-methylacetamido)pyrrolidin-1-yl]phenyl]-7-methyl-1H-indole-2-carboxamide]	1.04 L/kg			
	Cc1ccc(F)c2cc(C(=O)N[C@@H]3CCC[C@H](N4CC[C@H](N(C)S(C)(=O)=O)C4)C3)[nH]c12 [Compound 32]	8.13 L/kg	3.13 h	0.6	0.7 (30 mpk)
